Results published in patent US12227492B1, “Pyrimidine nucleosides as anticancer agents against pancreatic cancer” (Florida A&M University, priority 2021, dated 2025).
Where a name gives a salt, the structure may show the parent alone. Read-outs that look alike come from different tables or passages of the source.

How the values were obtained:
[1] = test system: MiaPaCa-2 pancreatic cancer cell line; assay: In vitro cell viability studies (resazurin/Alamar Blue); assay type: cell-based; settings: for IC50: Homo sapiens, MIA PaCa-2, MiaPaCa-2, 48 hr incubation
Experimental: Prior to viability studies, Dulbecco's modified Eagle medium (DMEM) with high glucose and L-glutamine was supplemented with 10% fetal bovine serum (FBS) and 1% penicillin-streptomycin (PenStrep). Briefly, MiaPaCa-2 cells were seeded at a density of 1×10^3 per well in 96-well plates in triplicates for each drug concentration level and incubated at 5% CO2 and temperature of 37° C. At 70-75% confluence, MiaPaCa-2 cells were treated with compounds XYZ-I-71, XYZ-I-73, 5-Fluorouracil (5-FU), Gemcitabine (Gem) and Irinotecan. Varying concentrations of 4NSG was prepared from its stock solution with growth medium. For 5-Fluorouracil (5-FU), Gemcitabine Hydrochloride (GemHCl) and Irinotecan, a stock solution was prepared with phosphate-buffered saline (PBS) and serially diluted with growth medium to prepare varied concentrations: thus 3, 6, 12, 25, and 100 μM. Cells was treated with 100 μL of each drug concentration in triplicates and incubated for 48 hr. At termination, 20 μL of 0.05% resazurin sodium salt (Alamar Blue®) was added and incubated at optimum conditions (5% CO2, 37° C.) for 4 hr. Fluorimetric analysis was determined at excitation wavelength of 560/580 nm and emission wavelength of 590/610 nm and the percent viable cells per concentration was calculated. For statistical analysis, results are presented as mean±SD. Data were analyzed for significance by one-way ANOVA, using GraphPad Prism 5 Software and IC50 values were determined.

[2] = Log P; assay type: physicochemical
[3] = test system: MiaPaCa-2 cells; assay: In vitro cell migration (wound) assay; assay type: cell-based; settings: 2, 5 and 10 μM, after 48 h, compared with 5-FU, GemHCl
Experimental: A uniform scratch was made in 90% confluent monolayer culture of MiaPaCa-2 cells and the extent of closure was monitored under microscope and photographed. […] Migrated cells within the scratch were quantified and the distance of migration measured using NIH ImageJ software. […] Over the same incubation time, the cells in the control group (48 h) migrated farther achieving a complete or near closure of the wounds. The results are expressed as the means (±SEM, N=4) relative to the control.
Cell migration assay was conducted to determine the effect of on 5-FU, GemHCl, XYZ-I-71 and XYZ-I-73 MiaPaCa-2 cell motility. Ibidi cell culture inserts were used to generate two confluent monolayers of cells separated by a “wound” for this assay. The cells were seeded in 24-well plates at a cell density of 2.5×10^5, for 24 h at 37° C. At 75% confluency, cells formed adherent monolayers on either side of the tissue culture insert. Prior to treatment, the cells were serum-starved by replacing complete media with base media (DMEM) and then further incubated for 24 hours. After serum starving, the insert was gently removed to generate a gap or “wound’ between the two confluent layers of cells. The monolayers were washed with experimental media and afterwards cells were exposed to varying concentrations of 5-FU, GemHCl, XYZ-I-71 and XYZ-I-73 (1, 2, 5 and 10 μM). […]

[4] = mean ± SD, read-out: IC50 (μM) against MiaPaCa-2 cell line as determined by cell viability studies
[5] = read-out: IC50 values, cytotoxic activity against MiaPaCa-2 cancer line

| Compound | IC50 [1, 4] | logP [2] | IC50 [1, 5] | efficacy against MiaPaCa-2 cancer line compared with 5-FU (IC50 data) ([1]; MiaPaCa-2) | number of migrated cells towards the wound [3] | cytotoxic activity against MiaPaCa-2, XYZ-I-73 versus XYZ-I-71 ([1]; MiaPaCa-2, FIG. 7) |
| --- | --- | --- | --- | --- | --- | --- |
| O=c1[nH]cc(F)c(=O)[nH]1 [Compound 5-FU, 5-Fluorouracil, reference compound] | 51.1 ± 1.1 µM |  |  |  |  |  |
| Nc1ccn([C@@H]2O[C@H](CO)[C@@H](O)C2(F)F)c(=O)n1 [GemHCl, Gemcitabine Hydrochloride, reference compound] | 25.3 ± 1.3 µM |  |  |  |  |  |
| CCc1c2c(nc3ccc(OC(=O)N4CCC(N5CCCCC5)CC4)cc13)-c1cc3c(c(=O)n1C2)COC(=O)[C@]3(O)CC [Irinotecan, reference compound] | 28 ± 1.5 µM |  |  |  |  |  |

Molecules with a lower IC50 [1, 4], results first:

| IC50 [1, 4] | logP [2] | Compound | IC50 [1, 5] | efficacy against MiaPaCa-2 cancer line compared with 5-FU (IC50 data) ([1]; MiaPaCa-2) | number of migrated cells towards the wound [3] | cytotoxic activity against MiaPaCa-2, XYZ-I-73 versus XYZ-I-71 ([1]; MiaPaCa-2, FIG. 7) |
| --- | --- | --- | --- | --- | --- | --- |
| 13.8 ± 1.7 µM | 2.27 | CCCCCCCC(=O)Nc1nc(=O)n(C2CCCO2)cc1F (centres unmarked) [XYZ-I-71, N-(5-fluoro-2-oxo-1-(tetrahydrofuran-2-yl)-1,2-dihydropyrimidin-4-yl)octanamide] | 13.8 ± 1.1 µM | greater efficacy | significantly inhibited |  |
| 6.81 ± 2.1 µM | 3.94 | CCCCCCCCCCCC(=O)Nc1nc(=O)n(C2CCCO2)cc1F (centres unmarked) [XYZ-I-73, N-(5-fluoro-2-oxo-1-(tetrahydrofuran-2-yl)-1,2-dihydropyrimidin-4-yl)dodecanamide] | 6.81 ± 1.1 µM | greater efficacy | significantly inhibited | significant higher cytotoxic activity |
